Assay type in all cases: functional, Artery
Assay [1] has as its system Rattus norvegicus. The experiment in a line: Anticongestive heart failure activity in Rattus norvegicus (rat) assessed as blood pressure at 50 mg/kg, intraduodenal measured at 10 min by tracheal intubation method (reference value: 95 +/- 3 mmHg).
Assay [2] relates to Rattus norvegicus. The experiment in a line: Anticongestive heart failure activity in Rattus norvegicus (rat) assessed as blood pressure at 50 mg/kg, intraduodenal measured at 20 min by tracheal intubation method (reference value: 81 +/- 4 mmHg).
Assay [3] has as its system Rattus norvegicus. The experiment in a line: Anticongestive heart failure activity in Rattus norvegicus (rat) assessed as blood pressure at 50 mg/kg, intraduodenal measured at 25 min by tracheal intubation method (reference value: 79 +/- 4 mmHg).
Assay [4] has as its system Rattus norvegicus. Description: Anticongestive heart failure activity in Rattus norvegicus (rat) assessed as blood pressure at 50 mg/kg, intraduodenal measured at 5 min by tracheal intubation method (reference value: 97 +/- 3 mmHg).
Assay [5] deals with Rattus norvegicus. The experiment in a line: Anticongestive heart failure activity in Rattus norvegicus (rat) assessed as blood pressure at 50 mg/kg, intraduodenal measured at 30 min by tracheal intubation method (reference value: 88 +/- 3 mmHg).
In assay [6] the test system is Rattus norvegicus. The experiment in a line: Anticongestive heart failure activity in Rattus norvegicus (rat) assessed as blood pressure at 50 mg/kg, intraduodenal measured at 15 min by tracheal intubation method (reference value: 86 +/- 3 mmHg).

Consider `C[C@@H]1CC(=O)NN=C1c1ccc(/N=C/c2ccc(Cl)c(Cl)c2)cc1`, for which the Activity is given as 33 mmHg in assay [1]; 24 mmHg in assay [2]; 25 mmHg in assay [3]; 52 mmHg in assay [4]; 25 mmHg in assay [5]; 25 mmHg in assay [6].

Regarding `C[C@@H]1CC(=O)NN=C1c1ccc(/N=C/c2ccc(O)c(O)c2)cc1`, the Activity in assay [1] turned out to be 63 mmHg; in assay [2], 53 mmHg; in assay [3], 53 mmHg; in assay [4], 77 mmHg; in assay [5], 53 mmHg; in assay [6], 53 mmHg.

With `COc1cc(/C=N/c2ccc(C3=NNC(=O)C[C@H]3C)cc2)cc(OC)c1OC`, the Activity amounted to 46 mmHg in assay [1]; 28 mmHg in assay [2]; 27 mmHg in assay [3]; 77 mmHg in assay [4]; 27 mmHg in assay [5]; 37 mmHg in assay [6].

For `C[C@@H]1CC(=O)NN=C1c1ccc(/N=C/c2cccc([N+](=O)[O-])c2)cc1`, the Activity in assay [1] was 71 mmHg; in assay [2], 68 mmHg; in assay [3], 67 mmHg; in assay [4], 77 mmHg; in assay [5], 67 mmHg; in assay [6] it was 69 mmHg.

As to `C[C@@H]1CC(=O)NN=C1c1ccc(/N=C/c2ccccc2O)cc1`, the Activity was 28 mmHg in assay [1]; 26 mmHg in assay [2]; 26 mmHg in assay [3]; 55 mmHg in assay [4]; 26 mmHg in assay [5]; 28 mmHg in assay [6].

As for `C[C@@H]1CC(=O)NN=C1c1ccc(/N=C/c2ccc([N+](=O)[O-])cc2)cc1`, the Activity in assay [1] came to 35 mmHg; in assay [2], 29 mmHg; in assay [3], 28 mmHg; in assay [4] it was 56 mmHg; in assay [5], 29 mmHg; in assay [6], 31 mmHg.

With `C[C@@H]1CC(=O)NN=C1c1ccc(/N=C/c2ccccc2Cl)cc1`, the Activity was determined as 68 mmHg in assay [1]; 34 mmHg in assay [2]; 34 mmHg in assay [3]; 81 mmHg in assay [4]; 32 mmHg in assay [5]; 55 mmHg in assay [6].

Consider `C[C@@H]1CC(=O)NN=C1c1ccc(NN=C(C#N)C#N)cc1` [LEVOSIMENDAN], for which the Activity is recorded as 39 mmHg in assay [1]; 36 mmHg in assay [2]; 34 mmHg in assay [3]; 51 mmHg in assay [4]; 31 mmHg in assay [5]; 34 mmHg in assay [6].

Take `C[C@@H]1CC(=O)NN=C1c1ccc(/N=C/c2ccccn2)cc1`: the Activity in assay [1] was 39 mmHg; in assay [2], 30 mmHg; in assay [3], 29 mmHg; in assay [4] it was 52 mmHg; in assay [5] it was 29 mmHg; in assay [6], 30 mmHg.

On to `C[C@@H]1CC(=O)NN=C1c1ccc(/N=C/c2ccco2)cc1`, for which the Activity in assay [1] worked out at 30 mmHg; in assay [2] it was 25 mmHg; in assay [3] it was 23 mmHg; in assay [4] it was 45 mmHg; in assay [5], 24 mmHg; in assay [6], 25 mmHg.

For `C[C@@H]1CC(=O)NN=C1c1ccc(/N=C/c2ccc(O)cc2)cc1`, the Activity in assay [1] was determined as 44 mmHg; in assay [2], 30 mmHg; in assay [3] it was 29 mmHg; in assay [4] it was 80 mmHg; in assay [5] it was 30 mmHg; in assay [6] it was 32 mmHg.
